Laboratory results from EP0512042B1, “GLP-1 ANALOGS USEFUL FOR DIABETES TREATMENT” (BUCKLEY, Douglas I., priority 1990, dated 1998).
Where two headings read alike, the source gives them in different places. Ends that are not written are not given here.

Experiments:
RIN 1046-38 cells = system: RIN 1046-38 cells
Description: An additional test for potency of the compounds of the invention measures their ability to stimulate cAMP production in RIN 1046-38 cells. This assay can be conducted as follows:
On day 1, 5 x 10^5 RIN 1046-38 cells (Drucker, D.J., et al., Proc Natl Acad Sci USA (1987) 84:3434-3438) are seeded into individual wells of 6-well dishes with 2.5 mL M199 culture medium. On day 4, cells are re-fed with fresh medium and on day 5 the assay is performed. At this time there are ~2.0-2.5 x 10^6 cells per well. Assays are only performed on cell passage <24.
At time -60 min, monolayers are washed twice with 2.5 mL PBS, and medium is changed to 1.0 mL of DMEM medium plus 4.5 g/l glucose and 0.1% BSA (assay medium). At 0 time, medium is aspirated and fresh assay medium, 1.0 mL, containing test compound is added. Test compound is added in 50 ul volume of PBS plus 0.1% BSA; controls are added in vehicle alone. Incubation is continued for 0 to 60 min.
At termination, conditioned medium and monolayer are harvested to measure both extra- and intracellular cAMP content. For extracellular measurement, medium is removed and centrifuged to remove any cellular debris. For intracellular determination, after medium removal, 1.0 mL of ice cold 95% ethanol is added to monolayer. Cells are collected by scraping, lysed by two cycles of quick freeze/thawing using liquid N2, and cell debris then removed by centrifugation. Aliquots (1/40th well content) of conditioned medium and ethanol cell extract are measured in duplicate for cAMP levels using an RIA kit by the acetylated protocol.
Insulin secretion can also be measured by the method described by Holst, J.J., et al. FEBS Letters (1987) 211:169-174 (supra). Also useful as an assay for insulinotropic effect is the measurement of stimulation of adenylate cyclase in the RIN 1046-38 cell line. Drucker, D.J. et al., Proc Natl Acad Sci USA (1987) 84:3434-3438 (supra).

[1] = resistance to degradation in plasma, assay by RP-HPLC; settings: incubation in plasma for 60 minutes
Description: In all assays, the plasma is prepared by collecting blood into heparinized tubes, placing the tubes on ice and centrifuging at about 3,000 rpm for 10 minutes in a tabletop centrifuge. The separated plasma is stored at 4°C.
In this assay, the analog is added to plasma for various times and recovered similarly to the method described above for radiolabel sequencing analysis. Specifically, the analog at a concentration of 100 nM in RIA buffer is spiked into 1 mL plasma to a final concentration of 1 nM and after incubation in 37°C circulating water bath for various preset times, the reaction is stopped by bringing the plasma to 0.1% (w/v) in bacitracin.
The peptides are then purified by Sep-Pak extraction as described above. The eluates are concentrated to about 1 mL on a Speed-vac, diluted with 1 mL distilled water, frozen at 80°C and lyophilized overnight. The powder is resuspended in 0.5 mL Buffer C (0.1% TFA in water) per mL starting plasma and 0.25 mL are injected on a Hewlett-Packard 1090L liquid chromatograph using an Alltech* C18 column (0.45 x 25 cm; 10 µm particle size) with a Brownlee 2 cm C18 guard column. The extraction is monitored at OD214 throughout the run and the solvent flow rate was 1 mL/minute. A gradient between Buffer C and Buffer D (0.1% TFA in acetonitrile) is set up over a 40 minute run time. The gradient starts at 35% D is held for the first 2 minutes after injection and then increased to 42% D over 24 minutes. The gradient is then increased to 60% D over the next two minutes, held at this level for 2 minutes and returned to 35% D over the next 2 minutes. The %D remains at 35% for the remaining 8 minutes of the run. Fractions are collected at 0.5 minute intervals for the first 30 minutes of each run and dried in a Speed-vac.

| Compound | ED50 nM Duplicate Assays (RIN 1046-38 cells; first of the duplicate assays) [nM] | ED50 nM Duplicate Assays (RIN 1046-38 cells; second of the duplicate assays) [nM] | Resistance to Degradation [1] | ED50 nM Duplicate Assays (RIN 1046-38 cells) [nM] |
| --- | --- | --- | --- | --- |
| GLP-1(3-37) (EFERHAEGTFTSDVSSYLEGQAAKEFIAWLVKGRG; Glucagon-like peptide 1; UniProt P01275 94-128, looked up, fragment) [reference compound] | 70 | 81 |  |  |
| gastric inhibitory peptide [GIP, reference compound] | 10.0 | 37.5 |  |  |
| CC[C@H](C)[C@H](NC(=O)[C@H](Cc1ccccc1)NC(=O)[C@H](CCC(=O)O)NC(=O)[C@H](CCCCN)NC(=O)[C@H](C)NC(=O)[C@H](C)NC(=O)[C@H](CCC(N)=O)NC(=O)CNC(=O)[C@H](CCC(=O)O)NC(=O)[C@H](CC(C)C)NC(=O)[C@H](Cc1ccc(O)cc1)NC(=O)[C@H](CO)NC(=O)[C@H](CO)NC(=O)[C@@H](NC(=O)[C@H](CC(=O)O)NC(=O)[C@H](CO)NC(=O)[C@@H](NC(=O)[C@H](Cc1ccccc1)NC(=O)[C@@H](NC(=O)CNC(=O)[C@H](CCC(=O)O)NC(=O)[C@H](C)NC(=O)[C@@H](N)CCCCN)[C@@H](C)O)[C@@H](C)O)C(C)C)C(=O)N[C@@H](C)C(=O)N[C@@H](Cc1c[nH]c2ccccc12)C(=O)N[C@@H](CC(C)C)C(=O)N[C@H](C(=O)N[C@@H](CCCCN)C(=O)NCC(=O)N[C@@H](CCCNC(=N)N)C(=O)NCC(=O)O)C(C)C [(K)^7-GLP-1(7-37)] |  |  | - | 350.0 |
| CC[C@H](C)[C@H](NC(=O)[C@H](Cc1ccccc1)NC(=O)[C@H](CCC(=O)O)NC(=O)[C@H](CCCCN)NC(=O)[C@H](C)NC(=O)[C@H](C)NC(=O)[C@H](CCC(N)=O)NC(=O)CNC(=O)[C@H](CCC(=O)O)NC(=O)[C@H](CC(C)C)NC(=O)[C@H](Cc1ccc(O)cc1)NC(=O)[C@H](CO)NC(=O)[C@H](CO)NC(=O)[C@@H](NC(=O)[C@H](CC(=O)O)NC(=O)[C@H](CO)NC(=O)[C@@H](NC(=O)[C@H](Cc1ccccc1)NC(=O)[C@@H](NC(=O)CNC(=O)[C@H](CCC(=O)O)NC(=O)[C@H](C)NC(=O)[C@H](CCCCN)NC(C)=O)[C@@H](C)O)[C@@H](C)O)C(C)C)C(=O)N[C@@H](C)C(=O)N[C@@H](Cc1c[nH]c2ccccc12)C(=O)N[C@@H](CC(C)C)C(=O)N[C@H](C(=O)N[C@@H](CCCCN)C(=O)NCC(=O)N[C@@H](CCCNC(=N)N)C(=O)NCC(=O)O)C(C)C [(N-acetyl-K)^7 GLP-1 (7-37)] |  |  | + |  |
| CC[C@H](C)[C@H](NC(=O)[C@H](Cc1ccccc1)NC(=O)[C@H](CCC(=O)O)NC(=O)[C@H](CCCCN)NC(=O)[C@H](C)NC(=O)[C@H](C)NC(=O)[C@H](CCC(N)=O)NC(=O)CNC(=O)[C@H](CCC(=O)O)NC(=O)[C@H](CC(C)C)NC(=O)[C@H](Cc1ccc(O)cc1)NC(=O)[C@H](CO)NC(=O)[C@H](CO)NC(=O)[C@@H](NC(=O)[C@H](CC(=O)O)NC(=O)[C@H](CO)NC(=O)[C@@H](NC(=O)[C@H](Cc1ccccc1)NC(=O)[C@@H](NC(=O)CNC(=O)[C@H](CCC(=O)O)NC(=O)[C@H](C)NC(=O)[C@H](Cc1c[nH]cn1)NC(C)C)[C@@H](C)O)[C@@H](C)O)C(C)C)C(=O)N[C@@H](C)C(=O)N[C@@H](Cc1c[nH]c2ccccc12)C(=O)N[C@@H](CC(C)C)C(=O)N[C@H](C(=O)N[C@@H](CCCCN)C(=O)NCC(=O)N[C@@H](CCCNC(=N)N)C(=O)NCC(=O)O)C(C)C [(N-isopropyl-H) ^7-GLP-1(7-37), (N-isopropyl-H)^7-GLP-1(7-37)] |  |  | + | 15.5 |
| GLP-1(7-37) | 0.16 | 0.25 |  |  |
| CC[C@H](C)[C@H](NC(=O)[C@H](Cc1ccccc1)NC(=O)[C@H](CCC(=O)O)NC(=O)[C@H](CCCCN)NC(=O)[C@H](C)NC(=O)[C@H](C)NC(=O)[C@H](CCC(N)=O)NC(=O)CNC(=O)[C@H](CCC(=O)O)NC(=O)[C@H](CC(C)C)NC(=O)[C@H](Cc1ccc(O)cc1)NC(=O)[C@H](CO)NC(=O)[C@H](CO)NC(=O)[C@@H](NC(=O)[C@H](CC(=O)O)NC(=O)[C@H](CO)NC(=O)[C@@H](NC(=O)[C@H](Cc1ccccc1)NC(=O)[C@@H](NC(=O)CNC(=O)[C@H](CCC(N)=O)NC(=O)[C@H](C)NC(=O)[C@@H](N)Cc1c[nH]cn1)[C@@H](C)O)[C@@H](C)O)C(C)C)C(=O)N[C@@H](C)C(=O)N[C@@H](Cc1c[nH]c2ccccc12)C(=O)N[C@@H](CC(C)C)C(=O)N[C@H](C(=O)N[C@@H](CCCCN)C(=O)NCC(=O)N[C@@H](CCCNC(=N)N)C(=O)NCC(=O)O)C(C)C [(Q)^9 GLP-1 (7-37)] |  |  | - |  |
| GLP-1(4-37) (FERHAEGTFTSDVSSYLEGQAAKEFIAWLVKGRG; Glucagon-like peptide 1; UniProt P01275 95-128, looked up, fragment) [reference compound] | 130 | 200 |  |  |
| GLP-1(1-37) [reference compound] | >1000 | 2900 |  |  |
| CC[C@H](C)[C@H](NC(=O)[C@H](Cc1ccccc1)NC(=O)[C@H](CCC(=O)O)NC(=O)[C@H](CCCCN)NC(=O)[C@H](C)NC(=O)[C@H](C)NC(=O)[C@H](CCC(N)=O)NC(=O)CNC(=O)[C@H](CCC(=O)O)NC(=O)[C@H](CC(C)C)NC(=O)[C@H](Cc1ccc(O)cc1)NC(=O)[C@H](CO)NC(=O)[C@H](CO)NC(=O)[C@@H](NC(=O)[C@H](CC(=O)O)NC(=O)[C@H](CO)NC(=O)[C@@H](NC(=O)[C@H](Cc1ccccc1)NC(=O)[C@@H](NC(=O)CNC(=O)[C@H](CCC(=O)O)NC(=O)[C@H](C)NC(=O)[C@@H](N)Cc1ccc(O)cc1)[C@@H](C)O)[C@@H](C)O)C(C)C)C(=O)N[C@@H](C)C(=O)N[C@@H](Cc1c[nH]c2ccccc12)C(=O)N[C@@H](CC(C)C)C(=O)N[C@H](C(=O)N[C@@H](CCCCN)C(=O)NCC(=O)N[C@@H](CCCNC(=N)N)C(=O)NCC(=O)O)C(C)C [(Y)^7-GLP-1(7-37)] |  |  | - | 5.0 |
| CC[C@H](C)[C@H](NC(=O)[C@H](Cc1ccccc1)NC(=O)[C@H](CCC(=O)O)NC(=O)[C@H](CCCCN)NC(=O)[C@H](C)NC(=O)[C@H](C)NC(=O)[C@H](CCC(N)=O)NC(=O)CNC(=O)[C@H](CCC(=O)O)NC(=O)[C@H](CC(C)C)NC(=O)[C@H](Cc1ccc(O)cc1)NC(=O)[C@H](CO)NC(=O)[C@H](CO)NC(=O)[C@@H](NC(=O)[C@H](CC(=O)O)NC(=O)[C@H](CO)NC(=O)[C@@H](NC(=O)[C@H](Cc1ccccc1)NC(=O)[C@@H](NC(=O)CNC(=O)[C@H](CCC(=O)O)NC(=O)[C@H](C)NC(=O)[C@H](Cc1c[nH]cn1)NC(C)=O)[C@@H](C)O)[C@@H](C)O)C(C)C)C(=O)N[C@@H](C)C(=O)N[C@@H](Cc1c[nH]c2ccccc12)C(=O)N[C@@H](CC(C)C)C(=O)N[C@H](C(=O)N[C@@H](CCCCN)C(=O)NCC(=O)N[C@@H](CCCNC(=N)N)C(=O)NCC(=O)O)C(C)C [(N-acetyl-H) ^7-GLP-1(7-37), (N-acetyl-H)^7-GLP-1(7-37)] |  |  | + | 15.5 |
| GLP-1(5-37) (ERHAEGTFTSDVSSYLEGQAAKEFIAWLVKGRG; Glucagon-like peptide 1; UniProt P01275 96-128, looked up, fragment) [reference compound] | 150 | 750 to 970 |  |  |
| HSQGTFTSDYSKYLDGQAAKEFIAWLVKGRG [(S)^8(Q)^9(Y)^16(K)^18(D)^21-GLP-1(7-37)] |  |  | - | 0.31 |
